Test results: patent US20220380829A1, “Method of Diagonosizing Pathogens and their Antimicrobial Susceptibility” (HANGZHOU DIAN MEDICAL LABORATORY CO., LTD., priority 2019, published 2022)
Starred links: 1 amine or outer side, 2 acyl side, 3 side chain; linkers in the order of their positions; H or OH if unused. Positions of bridges follow the written chain, without caps; N, C: chain ends. Non-standard residues stand in square brackets, D forms with d. Residues, ends and D or L forms follow the SMILES beside them. *: point of attachment. hTyr(3S-OH,4S-OH,3'-OSO3H) = N[C@H](C(=O)O)[C@H](O)[C@@H](O)c1ccc(O)c(OS(=O)(=O)O)c1; Orn(4R-OH,5R-OH) = O=C([C@H](C[C@@H](O)[C@@H](O)N[*:3])N[*:1])[*:2]; Pro(3S-OH,4S-Me) = C[C@H]1CN[C@H](C(=O)O)[C@H]1O; X1 = CCCCCOc1ccc(-c2cc(-c3ccc(C(=O)*)cc3)no2)cc1; Gln(3R-OH) = NC(=O)C[C@@H](O)[C@H](N)C(=O)O; Hyp = O=C(O)[C@@H]1C[C@@H](O)CN1

Assays:
Assay type in all cases: cell-based
Candida tropicalis = experiment: Broth microdilution (M27-A3, M27-S4), gold standard culture-based AST
Candida albicans = experiment: as above; details: for Results by broth microdilution method: R: number of resistant among 12 blinds; for Results by broth microdilution method: S: number of susceptible among 12 blinds
Method: Step 1. Sample collection and drug susceptibility verification: 120 clinical Candida albicans isolates were collected from 31 hospitals across china in a period between September 2015 and January 2019. All isolates were tested for drug susceptibility using broth microdilution method following the M27-A3 and M27-S4 guidelines of NCCLS, and the results were used as the gold standard (culture-based AST).

Acinetobacter baumannii = experiment: VITEK2 Compact AST (AST-N335 cards), gold standard culture-based AST
Method: Step 1. Drug susceptibility verification: The Acinetobacter baumannii isolates were tested for drug susceptibility using bioMérieux Vitek2 Compact System and AST-N335 cards, and the results were used as the gold standard (culture-based AST).

Streptococcus pneumoniae = experiment: VITEK2 Compact AST (AST-GP68 cards) with penicillin disc diffusion, gold standard culture-based AST
Method: (§1) Step 1. Drug susceptibility verification: The Streptococcus pneumoniae isolates were tested for drug susceptibility using bioMérieux Vitek2 Compact System and AST-GP68 cards, and specifically, the susceptibility of penicillin was double checked by disc diffusion method (OXOID, CT0043B), and the combined results were used as the gold standard (culture-based AST).
as §1, with “Sample collection and drug” for “Drug”, “48 clinical” for “The”, “pneumoniae isolates were collected from 18 hospitals across china in a period between May 2017 and October 2019. All” for “pneumoniae”, “card,” for “cards,”

Enterococcus faecalis = experiment: VITEK2 Compact AST (AST-P639 cards), gold standard culture-based AST
Klebsiella pneumoniae = experiment: VITEK2 Compact AST (AST-GN13/GN334 cards), gold standard culture-based AST; details: for Resistance profiles by VITEK2: R: number of resistant among 24 blinds; for Resistance profiles by VITEK2: S: number of susceptible among 24 blinds
Text: Step 1. Sample collection and drug susceptibility verification: 240 clinical Klebsiella pneumoniae isolates were collected from 23 hospitals across china in a period between January 2018 and March 2019.

Staphylococcus aureus = experiment: VITEK2 Compact AST (AST-P639 card), gold standard culture-based AST
Method: Step 1. Sample collection and drug susceptibility verification: 160 clinical Staphylococcus aureus isolates were collected from 20 hospitals across china in a period between June 2018 and June 2019. All isolates were tested for drug susceptibility using bioMérieux Vitek2 Compact System and AST-P639 card, and specifically, and the results were used as the gold standard (culture-based AST).

[1] = Resistance profile classification A
[2] = Resistance profile classification B
[3] = Resistance profile classification C
[4] = Resistance profile classification D
[5] = Resistance profile classification G
[6] = Resistance profile classification H
[7] = Resistance profile classification I
[8] = Resistance profile classification J
[9] = Resistance profile classification K
[10] = Resistance profile classification L
[11] = Resistance profile classification M
[12] = Resistance profile classification S

## Nc1nc(=O)[nH]cc1F [5-FC]
Candida tropicalis; blind-1
  Resistance profiles by broth microdilution (the gold standard): S
Candida tropicalis; blind-2
  Resistance profiles by broth microdilution (the gold standard): S
Candida tropicalis; blind-3
  Resistance profiles by broth microdilution (the gold standard): S
Candida tropicalis; blind-4
  Resistance profiles by broth microdilution (the gold standard): S
Candida tropicalis; blind-5
  Resistance profiles by broth microdilution (the gold standard): S
Candida tropicalis; blind-6
  Resistance profiles by broth microdilution (the gold standard): S

## Nc1nc(=O)[nH]cc1F [5-Fluorocytosine]
Candida albicans
  Results by broth microdilution method: R: 4
  Results by broth microdilution method: S: 8

## C[C@@H]1[C@H](O)[C@@H](C)/C=C/C=C/C=C/C=C/C=C/C=C/C=C/[C@H](O[C@@H]2O[C@H](C)[C@@H](O)[C@H](N)[C@@H]2O)C[C@@H]2O[C@](O)(C[C@@H](O)C[C@@H](O)[C@H](O)CC[C@@H](O)C[C@@H](O)CC(=O)O[C@H]1C)C[C@H](O)[C@H]2C(=O)O [AMB]
Candida tropicalis; blind-1
  Resistance profiles by broth microdilution (the gold standard): S
Candida tropicalis; blind-2
  Resistance profiles by broth microdilution (the gold standard): S
Candida tropicalis; blind-3
  Resistance profiles by broth microdilution (the gold standard): S
Candida tropicalis; blind-4
  Resistance profiles by broth microdilution (the gold standard): S
Candida tropicalis; blind-5
  Resistance profiles by broth microdilution (the gold standard): S
Candida tropicalis; blind-6
  Resistance profiles by broth microdilution (the gold standard): S

## C[C@@H]1[C@H](O)[C@@H](C)/C=C/C=C/C=C/C=C/C=C/C=C/C=C/[C@H](O[C@@H]2O[C@H](C)[C@@H](O)[C@H](N)[C@@H]2O)C[C@@H]2O[C@](O)(C[C@@H](O)C[C@@H](O)[C@H](O)CC[C@@H](O)C[C@@H](O)CC(=O)O[C@H]1C)C[C@H](O)[C@H]2C(=O)O [Amphotericin B]
Candida albicans
  Results by broth microdilution method: R: 0
  Results by broth microdilution method: S: 12

## CC[C@H](C)C[C@H](C)CCCCCCCCC(=O)N[C@H]1C[C@@H](O)[C@@H](NCCN)NC(=O)[C@@H]2[C@@H](O)CCN2C(=O)[C@H]([C@H](O)CCN)NC(=O)[C@H]([C@H](O)[C@@H](O)c2ccc(O)cc2)NC(=O)[C@@H]2C[C@@H](O)CN2C(=O)[C@H]([C@@H](C)O)NC1=O [CAS]
Candida tropicalis; blind-1
  Resistance profiles by broth microdilution (the gold standard): S
Candida tropicalis; blind-2
  Resistance profiles by broth microdilution (the gold standard): S
Candida tropicalis; blind-3
  Resistance profiles by broth microdilution (the gold standard): S
Candida tropicalis; blind-4
  Resistance profiles by broth microdilution (the gold standard): S
Candida tropicalis; blind-5
  Resistance profiles by broth microdilution (the gold standard): S
Candida tropicalis; blind-6
  Resistance profiles by broth microdilution (the gold standard): S

## CC[C@H](C)C[C@H](C)CCCCCCCCC(=O)N[C@H]1C[C@@H](O)[C@@H](NCCN)NC(=O)[C@@H]2[C@@H](O)CCN2C(=O)[C@H]([C@H](O)CCN)NC(=O)[C@H]([C@H](O)[C@@H](O)c2ccc(O)cc2)NC(=O)[C@@H]2C[C@@H](O)CN2C(=O)[C@H]([C@@H](C)O)NC1=O [Caspofungin]
Candida albicans
  Results by broth microdilution method: R: 0
  Results by broth microdilution method: S: 12

## OC(Cn1cncn1)(Cn1cncn1)c1ccc(F)cc1F [Fluconazole]
Candida albicans
  Results by broth microdilution method: R: 2
  Results by broth microdilution method: S: 10

## CCC(C)n1ncn(-c2ccc(N3CCN(c4ccc(OCC5COC(Cn6cncn6)(c6ccc(Cl)cc6Cl)O5)cc4)CC3)cc2)c1=O (centres unmarked) [ITR]
Candida tropicalis; blind-1
  Resistance profiles by broth microdilution (the gold standard): R
Candida tropicalis; blind-2
  Resistance profiles by broth microdilution (the gold standard): S
Candida tropicalis; blind-3
  Resistance profiles by broth microdilution (the gold standard): R
Candida tropicalis; blind-4
  Resistance profiles by broth microdilution (the gold standard): R
Candida tropicalis; blind-5
  Resistance profiles by broth microdilution (the gold standard): S
Candida tropicalis; blind-6
  Resistance profiles by broth microdilution (the gold standard): S

## CCC(C)n1ncn(-c2ccc(N3CCN(c4ccc(OCC5COC(Cn6cncn6)(c6ccc(Cl)cc6Cl)O5)cc4)CC3)cc2)c1=O (centres unmarked) [Itraconazole]
Candida albicans
  Results by broth microdilution method: R: 2
  Results by broth microdilution method: S: 10

## CCCCCOc1ccc(-c2cc(-c3ccc(C(=O)N[C@H]4C[C@@H](O)[C@@H](O)NC(=O)[C@@H]5[C@@H](O)[C@@H](C)CN5C(=O)[C@H]([C@H](O)CC(N)=O)NC(=O)[C@H]([C@H](O)[C@@H](O)c5ccc(O)c(OS(=O)(=O)O)c5)NC(=O)[C@@H]5C[C@@H](O)CN5C(=O)[C@H]([C@@H](C)O)NC4=O)cc3)no2)cc1 [Micafungin] (X1-[Orn(4R-OH,5R-OH)]T[Hyp][hTyr(3S-OH,4S-OH,3'-OSO3H)][Gln(3R-OH)][Pro(3S-OH,4S-Me)]; lactam 1-C)
Candida albicans
  Results by broth microdilution method: R: 0
  Results by broth microdilution method: S: 12

## C[C@@H](c1ncncc1F)[C@](O)(Cn1cncn1)c1ccc(F)cc1F [VOR]
Candida tropicalis; blind-1
  Resistance profiles by broth microdilution (the gold standard): R
Candida tropicalis; blind-2
  Resistance profiles by broth microdilution (the gold standard): S
Candida tropicalis; blind-3
  Resistance profiles by broth microdilution (the gold standard): R
Candida tropicalis; blind-4
  Resistance profiles by broth microdilution (the gold standard): R
Candida tropicalis; blind-5
  Resistance profiles by broth microdilution (the gold standard): S
Candida tropicalis; blind-6
  Resistance profiles by broth microdilution (the gold standard): S

## C[C@@H](c1ncncc1F)[C@](O)(Cn1cncn1)c1ccc(F)cc1F [Voriconazole]
Candida albicans
  Results by broth microdilution method: R: 2
  Results by broth microdilution method: S: 10

## CCN1CCN(C(=O)N[C@@H](C(=O)N[C@@H]2C(=O)N3[C@@H]2SC(C)(C)[C@@H]3C(=O)O)c2ccccc2)C(=O)C1=O [pipercillin, piperacillin]
Acinetobacter baumannii; [1]
  Suscepibility of Acinetobacter baumannii to 12 antibacterial drugs: R
Acinetobacter baumannii; [2]
  Suscepibility of Acinetobacter baumannii to 12 antibacterial drugs: R
Acinetobacter baumannii; [3]
  Suscepibility of Acinetobacter baumannii to 12 antibacterial drugs: R
Acinetobacter baumannii; [4]
  Suscepibility of Acinetobacter baumannii to 12 antibacterial drugs: R
Acinetobacter baumannii; Resistance profile classification E
  Suscepibility of Acinetobacter baumannii to 12 antibacterial drugs: R
Acinetobacter baumannii; Resistance profile classification F
  Suscepibility of Acinetobacter baumannii to 12 antibacterial drugs: R
Acinetobacter baumannii; [5]
  Suscepibility of Acinetobacter baumannii to 12 antibacterial drugs: R
Acinetobacter baumannii; [6]
  Suscepibility of Acinetobacter baumannii to 12 antibacterial drugs: R
Acinetobacter baumannii; [7]
  Suscepibility of Acinetobacter baumannii to 12 antibacterial drugs: R
Acinetobacter baumannii; [8]
  Suscepibility of Acinetobacter baumannii to 12 antibacterial drugs: R
Acinetobacter baumannii; [9]
  Suscepibility of Acinetobacter baumannii to 12 antibacterial drugs: R
Acinetobacter baumannii; [10]
  Suscepibility of Acinetobacter baumannii to 12 antibacterial drugs: R
Acinetobacter baumannii; [11]
  Suscepibility of Acinetobacter baumannii to 12 antibacterial drugs: R
Acinetobacter baumannii; Resistance profile classification N
  Suscepibility of Acinetobacter baumannii to 12 antibacterial drugs: R
Acinetobacter baumannii; Resistance profile classification O
  Suscepibility of Acinetobacter baumannii to 12 antibacterial drugs: S
Acinetobacter baumannii; Resistance profile classification P
  Suscepibility of Acinetobacter baumannii to 12 antibacterial drugs: S
Acinetobacter baumannii; Resistance profile classification Q
  Suscepibility of Acinetobacter baumannii to 12 antibacterial drugs: S
Acinetobacter baumannii; Resistance profile classification R
  Suscepibility of Acinetobacter baumannii to 12 antibacterial drugs: S
Acinetobacter baumannii; [12]
  Suscepibility of Acinetobacter baumannii to 12 antibacterial drugs: S

## CN[C@H](CC(C)C)C(=O)N[C@H]1C(=O)N[C@@H](CC(N)=O)C(=O)N[C@H]2C(=O)N[C@H]3C(=O)N[C@H](C(=O)N[C@H](C(=O)O)c4cc(O)cc(O)c4-c4cc3ccc4O)[C@H](O)c3ccc(c(Cl)c3)Oc3cc2cc(c3O[C@@H]2O[C@H](CO)[C@@H](O)[C@H](O)[C@H]2O[C@H]2C[C@](C)(N)[C@H](O)[C@H](C)O2)Oc2ccc(cc2Cl)[C@H]1O [vancomycin]
Streptococcus pneumoniae; Blind 1
  Blind 1 by AST: S
Streptococcus pneumoniae; blind 2
  blind 2 by AST: S
Enterococcus faecalis; [1]
  Susceptibility of Emterococcus faecalis to 11 antibacterial drugs: S
Enterococcus faecalis; [2]
  Susceptibility of Emterococcus faecalis to 11 antibacterial drugs: S
Enterococcus faecalis; [3]
  Susceptibility of Emterococcus faecalis to 11 antibacterial drugs: S
Enterococcus faecalis; [4]
  Susceptibility of Emterococcus faecalis to 11 antibacterial drugs: S
Enterococcus faecalis; Resistance profile classification F (first line so labelled, r12)
  Susceptibility of Emterococcus faecalis to 11 antibacterial drugs: S
Enterococcus faecalis; Resistance profile classification F (second line so labelled, r13)
  Susceptibility of Emterococcus faecalis to 11 antibacterial drugs: S
Enterococcus faecalis; [5]
  Susceptibility of Emterococcus faecalis to 11 antibacterial drugs: S
Enterococcus faecalis; [6]
  Susceptibility of Emterococcus faecalis to 11 antibacterial drugs: S
Enterococcus faecalis; [7]
  Susceptibility of Emterococcus faecalis to 11 antibacterial drugs: S
Enterococcus faecalis; [8]
  Susceptibility of Emterococcus faecalis to 11 antibacterial drugs: S
Enterococcus faecalis; [9]
  Susceptibility of Emterococcus faecalis to 11 antibacterial drugs: S
Enterococcus faecalis; [10]
  Susceptibility of Emterococcus faecalis to 11 antibacterial drugs: S
Enterococcus faecalis; [11]
  Susceptibility of Emterococcus faecalis to 11 antibacterial drugs: S
Enterococcus faecalis; [12]
  Susceptibility of Emterococcus faecalis to 11 antibacterial drugs: S

## Amoxicillin-clavulanate
Klebsiella pneumoniae
  Resistance profiles by VITEK2: R: 16
  Resistance profiles by VITEK2: S: 8

## Ampicillin-sulbactam
Klebsiella pneumoniae
  Resistance profiles by VITEK2: R: 15
  Resistance profiles by VITEK2: S: 9

## Cefoperazone-sulbactam
Klebsiella pneumoniae
  Resistance profiles by VITEK2: R: 13
  Resistance profiles by VITEK2: S: 11

## Piperacillin-tazobactam
Klebsiella pneumoniae
  Resistance profiles by VITEK2: R: 13
  Resistance profiles by VITEK2: S: 11

## Teicoplanin
Staphylococcus aureus; number of resistant among 22 blinds
  Resistance profiles by VITEK2: R: 0
Staphylococcus aureus; number of susceptible among 22 blinds
  Resistance profiles by VITEK2: S: 22
